Data as given in patent US7189724B2, “Quinoxaline derivatives having antiviral activity” (Valeant Research and Development, priority 2003, dated 2007).
Read-outs that look alike come from different tables or passages of the source.

Experiments:
[1] = test system: HCV replicon RNA in replicon cells (Huh-7); test: HCV Replicon Assay (reduction of HCV RNA, QuantiGene); type: cell-based; conditions: Hepatitis C virus; for IC50: read-out: HCV Replicon (IC50); for EC50: first part of Table 1 (scaffold drawing 18)
Procedure: The anti-HCV activity of the quinoxaline derivatives was tested by replicon and BVDV cell-line based assays. The HCV NS5B polymerase activity was tested as described below, and was further tested for its capability of inhibition of replication of the hepatitis C virus in a cell-line based HCV replicon assay as described in V. Lohmann, F. Komer, J.-O. Koch, U. Herian, L. Theilmann, R. Bartenschlager, “Replication of a Subgenomic Hepatitis C virus RNAs in a Hepatoma Cell Line”, Science, 1999, 285:110.
HCV Replicon Assay. The replicon cells (Huh-7) contain replicating HCV replicon RNA, which was modified in the structural region (replacing the structural region with a neomycin resistance marker). Survival of the replicon cells under G418 selection relies on the replication of HCV RNA and subsequently expression of neomycin phosphoryltransferase. The ability of modified nucleoside libraries and compounds to suppress HCV RNA replication was determined using the QuantiGene™ Assay Kit (Bayer Diagnostics, Tarrytown N.Y.). The assay measures the reduction of HCV RNA molecules in the treated cells. Replicon cells were incubated at 37° C. for 3 days in the presence of nucleoside libraries and compounds before being harvested for detection. The assay protocol was modified based on literature procedure (V. Lohmann, F. Komer, J. O. Koch, U. Herian, L. Theilmann, R. Bartenschlager, Science, 1999, 285, 110–113). The HCV subgenomic replicon cell line was provided by Dr. R. Bartenschlager.

HCV NS5B polymerase = target: T1, HCV NS5B polymerase (Hepatitis C virus genotype 1b, UniProt Q9WMX2); test: De novo RNA synthesis activity assay for HCV NS5B polymerase; type: biochemical, HCV-1b CON1 strain
T1 construct: HCV NS5B was derived from a cDNA clone encoding HCV-1b CON1 strain, and was expressed and purified from E. coli; made in house; host or cells: E. coli
Excerpt: HCV NS5B was derived from a cDNA clone encoding HCV-1b CON1 strain, and was expressed and purified from E. coli. Various [α-^33P]rNTPs (3000 Ci/mmol) were purchased from Perkin Elmer. 3′-Deoxy ribonucleosides, their 5′-triphosphates and dinucleotide primers were from Sigma, TriLink (San Diego, Calif.) or ICN Biochemicals. All other reagents were of the highest grade available from ICN, Sigma, Fisher, or Ambion.
An HCV mini-genome of 2.1-kb contains an entire 5′-UTR (untranslated region), part of NS5B sequence and an entire 3′-UTR was constructed from an internal deletion between two KpnI sites on the HCV replicon plasmid, pFK389/NS3-3′. To generate the in vitro transcribed mini-genome RNA, the plasmid DNA was linearized with AseI and ScaI and transcribed in vitro using a MegaScript kit (Ambion, Austin, Tex.). After phenol-chloroform extraction and isopropanol precipitation, the RNA was resuspended in RNase-free water and stored at −80° C. before use. This HCV strain CON1-based template was used for the standard NS5B-catalyzed RNA synthesis assay.
A standard NS5B activity assay was performed at 23C in a total volume of 25 μl. The reaction buffer contained 50 mM Tris, pH 7.0, 10 mM MgCl2, 50 mM NaCl, 5 mM DTT (add fresh) and 0.05 mg/ml BSA. 0.4 μg of the RNA template was incubated with NS5B enzyme (250 nM) before adding a mixture of radiolabeled nucleotide (0.2 μCi) and cold nucleotide cocktail to initiate a reaction. The assay was incubated for 1 hr and terminated by addition of 75 μl of 5% trichloroacetic acid (TCA) and 0.05% pyrophosphate solution. The quenched solution was incubated at room temperature for 10 min to precipitate out polymeric products and subsequently transferred to a 96-well white GF/B filter microplate (Packard Instrument) using a Packard Filtermate Universal Harvester. The filter plate was washed five times by water and one time by ethanol before vacuum drying. 40 μl of liquid scintillation cocktail (Packard MicroSint™) was added to each well. Radioactivity incorporated into the product was counted in a 96-well format using a Packard TopCount. IC50 values, defined as the inhibitor concentration to suppress 50% of NS5B activity, were determined by varying the compound concentration. The results in Table 1 are data obtained using the HCV NS5B assays described above.

[2] = 72 h, Huh-7 replicon cells, 3 days at 37° C., second part of Table 1 (scaffold drawing 19)
[3] = NS5B 250 nM, 23C, 1 hr, second part of Table 1 (scaffold drawing 19), read-out: HCV NS5B (EC50)
[4] = 72 h, Huh-7 replicon cells, 3 days at 37° C.

T1 sequence (Q9WMX2 2420-3010): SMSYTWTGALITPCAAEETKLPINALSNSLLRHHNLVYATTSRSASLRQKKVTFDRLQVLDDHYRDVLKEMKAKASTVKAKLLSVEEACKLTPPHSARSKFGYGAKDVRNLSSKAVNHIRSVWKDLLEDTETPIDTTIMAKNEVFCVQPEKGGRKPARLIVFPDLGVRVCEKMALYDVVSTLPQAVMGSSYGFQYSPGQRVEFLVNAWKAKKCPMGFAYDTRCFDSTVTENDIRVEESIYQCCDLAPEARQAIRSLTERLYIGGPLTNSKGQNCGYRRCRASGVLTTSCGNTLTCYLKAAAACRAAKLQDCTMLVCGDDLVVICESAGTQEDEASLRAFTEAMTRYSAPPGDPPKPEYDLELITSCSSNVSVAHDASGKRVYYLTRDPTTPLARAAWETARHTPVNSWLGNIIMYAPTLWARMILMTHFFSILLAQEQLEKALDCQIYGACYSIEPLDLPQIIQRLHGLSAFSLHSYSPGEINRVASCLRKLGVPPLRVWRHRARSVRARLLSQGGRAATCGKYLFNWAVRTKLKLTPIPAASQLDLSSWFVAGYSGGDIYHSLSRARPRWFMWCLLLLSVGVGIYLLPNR

COC(=O)c1ccc2nc(-c3ccc(F)cc3)c(-c3ccc(F)cc3)nc2c1
IC50 [1, 2]: > 50 µM | EC50 (HCV NS5B polymerase): > 50 µM

O=C(O)c1ccc2nc(-c3ccccc3)c(-c3ccccc3)nc2c1
IC50 [1, 2]: > 50 µM | EC50 (HCV NS5B polymerase): < 10 µM

O=C(N[C@@H](Cc1c[nH]c2ccccc12)C(=O)O)c1ccc2nc(-c3ccccc3)c(-c3ccccc3)nc2c1
EC50 (HCV NS5B polymerase): 10 to 50 µM

O=C(N[C@@H](Cc1c[nH]c2ccc(O)cc12)C(=O)O)c1ccc2nc(-c3ccccc3)c(-c3ccccc3)nc2c1
EC50 (HCV NS5B polymerase; [3]): > 50 µM

COC(=O)[C@H](Cc1c[nH]c2ccccc12)NC(=O)c1ccc2nc(-c3ccccc3)c(-c3ccccc3)nc2c1
EC50 (HCV NS5B polymerase; [3]): > 50 µM

O=C(O)c1ccc2nc(-c3ccccn3)c(-c3ccccn3)nc2c1
IC50 [1, 2]: > 50 µM | EC50 (HCV NS5B polymerase): > 50 µM

COC(=O)[C@H](Cc1c[nH]c2ccccc12)NC(=O)c1ccc2nc(-c3ccccn3)c(-c3ccccn3)nc2c1
IC50 [1, 2]: > 50 µM | EC50 (HCV NS5B polymerase): > 50 µM

O=C(N[C@@H](Cc1c[nH]c2ccccc12)C(=O)O)c1ccc2nc(-c3ccccn3)c(-c3ccccn3)nc2c1
IC50 ([1]; Huh-7, 72 h): > 50 µM | EC50 (HCV NS5B polymerase): > 50 µM

Cc1ccc(-c2nc3cc(C(=O)O)ccc3nc2-c2ccc(Cl)cc2)cc1
IC50 ([1]; Huh-7, 72 h): 10 to 50 µM | EC50 (HCV NS5B polymerase; [3]): < 10 µM

Cc1ccc(-c2nc3cc(C(=O)N[C@@H](Cc4c[nH]c5ccc(O)cc45)C(=O)O)ccc3nc2-c2ccc(Cl)cc2)cc1
EC50 (HCV NS5B polymerase; [3]): < 10 µM

NC(=O)[C@H](Cc1c[nH]c2ccc(O)cc12)NC(=O)c1ccc2nc(-c3ccc(F)cc3)c(-c3ccc(F)cc3)nc2c1 [R=NH2, X=OH]
EC50 [1, 4]: 10 to 50 µM | IC50 (HCV NS5B polymerase): < 10 µM

COC(=O)[C@H](Cc1c[nH]c2ccc(O)cc12)NC(=O)c1ccc2nc(-c3ccc(F)cc3)c(-c3ccc(F)cc3)nc2c1 [R=OCH3, X=OH]
EC50 [1, 4]: 10 to 50 µM | IC50 (HCV NS5B polymerase): < 10 µM

O=C(N[C@@H](Cc1c[nH]c2ccc(O)cc12)C(=O)O)c1ccc2nc(-c3ccc(F)cc3)c(-c3ccc(F)cc3)nc2c1 [R=OH, X=OH]
EC50 [1, 4]: 10 to 50 µM | IC50 (HCV NS5B polymerase): < 10 µM
